Laboratory results as given in US4806547A, “Isoquinoline derivatives, analgesic compounds thereof and method of treating pain” (Dr. Lo. Zambeletti SPA, priority 1986, dated 1989).
Where a name gives a salt, the structure may show the parent alone. Read-outs that look alike come from different tables or passages of the source.

Columns and labels:
mice = assay: Mouse Tail-flick test (analgesic activity); type: in vivo, mouse (male Charles River); settings: 30 min after dosing; for ED50: Mus musculus, sc, 0.5 h, s.c., mice doubling the initial reaction time
Protocol: Mouse Tail-flick test (Modified from the procedure published by D'Amour et al., J. Pharm. Exptl. Ther.72, 74/1941).
Male Charles River mice, average weight 26 g, are used. Selection is carried out before beginning of experiments: only mice whose reaction time is less than 8 sec are used. They are randomly distributed into groups of 10 and dosed with compounds under test, with positive and negative controls being included.
Compounds under test are administered subcutaneously in isotonic saline in a volume of 20 ml. Kg^-1. 30 min later mice are placed again under heat source (Socrel apparatus) and reaction time is recorded.
The analgesic activity of the test compound is expressed as the percent number of mice doubling the initial time within a group. [formula]

[1] = biological target: μ opioid receptor (μ sites) (Cavia porcellus, UniProt A0ACM8Q262); assay: Receptor binding to μ sites (3H-DAGO)
Sequence of μ opioid receptor (μ sites) (A0ACM8Q262 1-400): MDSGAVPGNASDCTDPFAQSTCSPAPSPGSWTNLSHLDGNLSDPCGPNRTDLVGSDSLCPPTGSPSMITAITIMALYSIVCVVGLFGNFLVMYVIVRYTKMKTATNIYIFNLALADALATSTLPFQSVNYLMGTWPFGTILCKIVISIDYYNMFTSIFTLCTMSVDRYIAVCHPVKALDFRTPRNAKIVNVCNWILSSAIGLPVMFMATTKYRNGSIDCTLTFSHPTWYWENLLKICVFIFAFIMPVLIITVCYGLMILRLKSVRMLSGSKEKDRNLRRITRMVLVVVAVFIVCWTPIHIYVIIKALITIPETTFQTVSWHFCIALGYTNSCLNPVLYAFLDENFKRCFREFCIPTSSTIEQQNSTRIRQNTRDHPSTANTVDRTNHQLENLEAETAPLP
Protocol: Radio receptor binding to μ and K sites is performed on fresh guinea pig brain homogenate prepared according to Kosterlitz.
(§1) Whole brain without cerebellum is homogenized in 50 mM, Tris-buffer (pH 7.4 at 0° C.) and centrifuged at 49,000×g×10 min.
(§2) The pellet is then resuspended in the same buffer, incubated at 37° C. for 45 min. and centrifuged again.
(§3) 1.9 ml of the final homogenate (1:100 in Tris-pH 7.4, 0° C.) is used for the binding assay.
^3 H[D--Ala^2, MePhe^4, Gly--ol^5 ]
The filters are then dryed, solubilized in Filtercount and the radioactivity monitored. Non specific binding is determined in the presence of 10^-6 M Naloxone.
(§4) A concentration of radioligand near KD is used in the binding assays evaluating our compounds.

[2] = biological target: T1, K (Kappa) opioid receptor (K sites) (Cavia porcellus, UniProt P41144); assay: Receptor binding to K sites (tritiated Ethylketocyclazocine); set-up: species or system guinea pig
T1 construct: fresh guinea pig brain homogenate; from tissue; host or cells: guinea pig whole brain without cerebellum, homogenate
T1 sequence (P41144 whole entry): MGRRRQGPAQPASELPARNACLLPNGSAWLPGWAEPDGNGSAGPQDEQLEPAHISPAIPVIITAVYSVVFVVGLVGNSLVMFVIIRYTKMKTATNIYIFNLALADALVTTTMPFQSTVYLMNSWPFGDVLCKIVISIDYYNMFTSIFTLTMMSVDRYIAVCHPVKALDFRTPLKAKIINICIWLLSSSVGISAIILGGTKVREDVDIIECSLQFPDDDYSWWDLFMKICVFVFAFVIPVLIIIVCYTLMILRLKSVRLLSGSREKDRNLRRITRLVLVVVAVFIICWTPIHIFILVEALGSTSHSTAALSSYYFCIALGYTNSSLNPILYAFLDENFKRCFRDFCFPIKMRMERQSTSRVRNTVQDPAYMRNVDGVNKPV
Protocol: Radio receptor binding to μ and K sites is performed on fresh guinea pig brain homogenate prepared according to Kosterlitz. (1981).
as §1, §2, §3
Binding to K sites (Magnan J., 1982)
The binding of tritiated Ethylketocyclazocine to brain homogenate is measured in the presence of 100 nanomolar D--Ala--D--LeuEnkephalin (DADLE) and 100 nanomolar DAGO, added to saturate the δ and μ opioid receptors respectively.
Final homogenate with solutions of the cold ligand and of the labelled ligand is incubated for 40 min. at 25° C., filtered through Whatman GF/C glass filter discs and washed.
The radioactivity bound to the filters is counted by liquid scintillation spectrophotometry.
MR 2266.500 nM is utilized to determine the saturable binding.
For the calculation of the kinetic parameters of the binding of labelled and unlabelled ligands, the equilibrium dissociation constant (KD), the inhibition constant (Ki) and the maximum number of binding sites (B max) are determined from saturation curves and competition experiments (Hill 1910; Scatchard 1949; Cheng and Prusoff 1973); Gillan et al. 1980).
as §4

[3] = guinea pig brain homogenate, 25° C., 40 min, read-out: RECEPTOR BINDING Ki μ
[4] = read-out: RECEPTOR BINDING Ki K, guinea pig brain homogenate, tritiated Ethylketocyclazocine with 100 nM DADLE and 100 nM DAGO, 25° C., 40 min
[5] = read-out: RECEPTOR BINDING Ki μ, guinea pig brain homogenate, 25° C., 40 min

SMILES | ED50 (mice) [mg/kg] | Ki [1, 3] [nM] | Ki [2, 4] [nM] | Ki [1, 5] [nM] | further results
O=C(Cc1ccc(C(F)(F)F)cc1)N1CCc2ccccc2C1CN1CCCC1 (stereo not drawn) [Example 14, 1-(1-pyrrolidinylmethyl)-2-(4-trifluoromethylacetyl)-1,2,3,4-tetrahydroisoquinoline hydrochloride] | 0.33 |  |  |  | 
CN(C)CC1c2ccccc2CCN1C(=O)Cc1ccc(Br)cc1 (stereo not drawn) [Example 4, 2-(4-bromophenylacetyl)-1-dimethylaminomethyl-1,2,3,4-tetrahydroisoquinoline hydrochloride] | 0.25 | 597 |  |  | Ki [2]: 3.19 nM
O=C(Cc1ccc(Cl)c(Cl)c1)N1CCc2ccccc2C1CN1CCCC1 (stereo not drawn) [Example 7, 1-[1-pyrrolidinylmethyl)-2-(3,4-dichlorophenylacetyl)-1,2,3,4-tetrahydroisoquinoline hydrochloride] | 0.016 |  |  |  | 
CN(C)CC1c2ccccc2CCN1C(=O)Cc1ccccc1[N+](=O)[O-] (stereo not drawn) [Example 6, 1-dimethylaminomethyl-2-(2-nitrophenylacetyl)-1,2,3,4-tetrahydroisoquinoline hydrochloride hemihydrate] |  | > 10000 | 30.6 |  | 
O=C(Cc1ccc(Cl)c(Cl)c1)N1CCc2ccccc2C1CN1CCCC1 (single isomer, unassigned) [Example 9, (-)-1-[1-pyrrolidinylmethyl)-2-(3,4-dichlorophenylacetyl)-1,2,4-tetrahydroisoquinoline (-)-tartrate] | 0.009 |  |  |  | 
O=C(Cc1ccccc1[N+](=O)[O-])N1CCc2ccccc2C1CN1CCCC1 (stereo not drawn) [Example 13, 1-(1-pyrrolidinylmethyl)-2-(2-nitrophenylacetyl)-1,2,3,4-tetrahydroisoquinoline hydrochloride hemihydrate] |  | 1850 | 7.94 |  | 
O=C(Cc1ccc(Br)cc1)N1CCc2ccccc2C1CN1CCCC1 (stereo not drawn) [Example 10, 1-(1-pyrrolidinylmethyl)-2-(4-bromophenylacetyl)-1,2,3,4-tetrahydroisoquinoline hydrochloride] | 0.031 |  |  | 50 | Ki [2]: 0.57 nM
O=C(Cc1ccc([N+](=O)[O-])cc1)N1CCc2ccccc2C1CN1CCCC1 (stereo not drawn) [Example 11, 1-(1-pyrrolidinylmethyl)-2-(4-nitrophenylacetyl)-1,2,3,4-tetrahydroisoquinoline hydrochloride hemihydrate] | 0.016 |  | 0.64 | 62 | 
N#Cc1ccc(CC(=O)N2CCc3ccccc3C2CN2CCCC2)cc1 (stereo not drawn) [Example 15, 1-(1-pyrrolidinylmethyl)-2-(4-cyanophenylacetyl)-1,2,3,4-tetrahydroisoquinoline hydrochloride sesquihydrate] |  |  |  |  | MOUSE TAIL FLICK % protection (mice; at 1 mg/kg s.c.): 70%
O=C(Cc1cccc([N+](=O)[O-])c1)N1CCc2ccccc2C1CN1CCCC1 (stereo not drawn) [Example 12, 1-(1-pyrrolidinylmethyl)-2-(3-nitrophenylacetyl)-1,2,3,4-tetrahydroisoquinoline hydrochloride hydrate] | 0.23 |  |  |  | 
CN(C)CC1c2ccccc2CCN1C(=O)Cc1ccc([N+](=O)[O-])cc1 (stereo not drawn) [Example 5, 1-dimethylaminomethyl-2-(nitrophenylacetyl)-1,2,3,4-tetrahydroisoquinoline hydrochloride hemihydrate] | 0.23 | 655 | 5.72 |  | 
CN(C)CC1c2ccccc2CCN1C(=O)Cc1ccc(Cl)c(Cl)c1 (stereo not drawn) [Example 1, 1-dimethylaminomethyl-2-(3,4-dichlorophenyl)-acetyl-1,2,3,4-tetrahydroisoquinoline hydrochloride] | 0.041 |  |  | 415 | Ki ([2]; guinea pig brain homogenate, tritiated Ethylketocyclazocine with 100 nM DADLE and 100 nM DAGO, 25° C., 40 min, read-out: RECEPTOR BINDING Ki K): 1.59 nM
CN(C)CC1c2ccccc2CCN1C(=O)Cc1ccc(Cl)c(Cl)c1 (single isomer, unassigned) [Example 3, hemihydrate] | 0.032 |  |  | 286 | Ki [2]: 2.37 nM
